Consider one compound from patent publication US9675658B2, “Method of treating inflammation, allergy and asthma with a purified extract (ATC2) isolated from Pseudolysimachion rotundam var. subintegrum containing abundant amount of active ingredient” (YUNGJIN PHARMACEUTICAL CO., LTD, priority 2012, dated 2017).

Molecules are shown by their SMILES.

Holding throughout (type): in vivo, BALB/c mice
Experiment [1] relates to OVA-sensitized/challenged mouse model. As to the kind of experiment: Preliminary determination of total serum IgE level in OVA-sensitized/challenged mouse model. Particulars: 30 mg/kg PO 1 h prior to OVA inhalation. The protocol: In order to found the purified extract showing more pharmacologically potent activity than the crude extract prepared in comparative Example, following preliminary test was performed by the method disclosed in the literature (Elias, J. A. et al., J. Clin. Invest., 111, pp 297-297, 2003).
1-1. Animal Sensitization and Airway Challenge
(§1) Specific pathogen-free female BALB/c mice (about 20 g), aged 6 weeks, which were routinely screened serologically for relevant respiratory pathogens, were purchased from ORIENT Co. (Seoul, Korea) and acclimated with the experimental environment for 1 week.
(§2) Briefly, mice were sensitized by intraperitoneal injection of 20 μg OVA (Ovalbumin; A5503, Sigma, St. Louis, Mo.), which was emulsified in 2 mg aluminum hydroxide in 200 μl of PBS buffer (pH 7.4), biweekly. The mice were challenged through the airways with OVA (1% in PBS) for 30 min using an ultrasonic nebulizer (NE-U12; Omron Corp., Tokyo, Japan) from the 28th day to 34th day after the initial sensitization. 24 hrs after the antigen treatment, the airway hyperresponsiveness was determined and the mice were sacrificed 48 hrs after the last challenge. The mice were sacrificed with an overdose of pentobarbital (Entobal®, Hanrim Pharm. Co. Ltd.) 24 h after the last challenge, and a tracheotomy was performed. […]

Experiment [2] shares this test system. As to the kind of experiment: Level of eosinophil and inflammatory cells in BALF. Particulars: 30 mg/kg PO. The protocol: In order to confirm the inhibition effect of test samples prepared in Examples on the level of eosinophil and inflammatory cells in bronchoalveolar fluid (BALF), following test was performed by the method disclosed in the literature (Chen M. et al., Immunolgy, pp 376-384, 2011).
The bronchoalveolar lavage fluid (BALF) prepared in Experimental Example 1 was recovered to determine the level of inflammatory cells.
The total inflammatory cell number was assessed by the counting of cells in at least five squares of a hemocytometer after excluding dead cells by staining with trypan blue (Daigle I. et al., Swiss Med Wkly, 131, pp 231-7, 2001). 100 μl of BALF was loaded onto a slide and centrifuged (200×g, 4° C., 10 min) to fix the cells onto the slide using a Cellspin machine (Cyto12.5+clip5, Hanil Science Industrial, Korea). The cells were stained by Diff-Quick® Stain reagents (Sysmex, Cat No. 38721, Switzerland) according to the manufacturer's instructions. Statistical significance was determined by Student's two-tailed t-test for independent means and the critical level for significance was set at P<0.05.

The test system is the same in experiment [3]. Description: Level of Th2 cytokines (IL-4, IL-5, IL-13) and IL-1β in BALF (ELISA). Particulars: 30 mg/kg PO. How it is done:
In order to confirm the inhibition effect of test samples prepared in Examples on the level of Th2 cytokines (IL-4, IL-5 and IL-13) and IL-1β in bronchoalveolar lavage fluid (BALF), following test was performed by the sandwich enzyme immunosorbent assay method disclosed in the literature (Renz H. et al., J. Exp. Med., […], pp 1175-1180, 1993).
The blood serum and bronchoalveolar lavage fluid (BALF) was added to 96-well plates (ELISA plate) coated with cytokine antibody to induce antigen-antibody reaction for 2 hours at room temperature. The level of Th2 cytokines (IL-4, IL-5 and IL-13) and IL-1β in bronchoalveolar lavage fluid (BALF) was determined using by ELISA kit (Biosource Int. CA, USA) specifically reacting with each cytokine according to the manufacture's manual.
(In general: An ELISA detects its analyte on a solid surface through an enzyme-linked reagent.)

For experiment [4] the test system is unchanged. Description: Lung histology, H&E inflammation score. Particulars: lung tissue, score 0-3; 30 mg/kg PO. The protocol: In order to confirm the anti-asthmatic effect of test samples prepared in Examples, following histopathological analysis on broncho-alveolar tissue was performed by the method disclosed in the literature (Kwak Y G. et al., J. Clin. Invest., 111, pp 1083-1092, 2003).
The delivered lung tissues of BALB/c mice which had not perform broncho-alveolar lavage was fixed for 24 h in 10% neutral-buffered formalin. After being embedded in paraffin, then made into 4-μm thickness sections, the tissue was stained with H&E solution (hematoxylin; Sigma MHS-16 and eosin, Sigma HT110-I-32) and the inflammation score of five regions in each section chosen in a randomized manner, was determined. (Inflammation score 0: inflamed cells is not found in bronchial surrounding, Inflammation score 1: inflamed cells is sporadically found in bronchial surrounding, Inflammation score 2: thin inflamed cell layer is found in most of bronchial surrounding, Inflammation score 3: thick inflamed cell layer is found in most of bronchial surrounding).

For experiment [5] the test system is unchanged. Description: Airway hyperresponsiveness test (Penh, whole body plethysmography, methacholine). Particulars: 30 mg/kg PO. How it is done: In order to confirm the anti-asthmatic effect of test samples prepared in Examples using by airway hyperresponsiveness test in a OVA-sensitized/challenged mouse model, following test was performed by the method disclosed in the literature (Elias, J. A. et al., J. Clin. Invest., 111, pp 297-297, 2003).
as §1
as §2, with “performed. After […] of physiological saline solution (PBS) was instilled into the lungs, bronchoalveolar lavage fluid (BALF) was obtained by aspiration three times (total 1.5 ml) via tracheal cannulation.” for “performed.”
In order to evaluate the airway hyperresponsiveness of the mice, the airway resistance was determined using by apparatus (One chamber whole body plethymography, OCP3000, All Medicus, Seoul. Korea) and the determined value was statistically calculated by Pehn value (Enhance Pause) reflecting on the degree of airway obstruction. The Penh value was determined for 3 mins by the process of determining the basal value at the eupnea phase and determining the Penh value after inhaling PBS with Ultrasonic nebulizer (NE-U12, IMRON Corp., Tokyo, JAPAN) for 3 mins.
Thereafter, various concentrations of methacholine (A2251, Sigma, St. Louis, Mo.), 12, 25 and 50 mg/ml, were inhaled with increasing concentration to determine the Pehn values. The increase of Penh value was expressed as percentage (%) after the methacholine inhalation and the Penh value of basal line was set to 100%. […]

Experiment [6] shares this test system. As to the kind of experiment: Level of IgE and OVA-specific IgE in blood serum (ELISA). Particulars: 30 mg/kg PO. How it is done:
In order to confirm the inhibition effect of test samples prepared in Examples on the level of IgE and OVA-specific IgE in blood serum, following test was performed by the method disclosed in the literature (Kay, A. B., The New England Journal of Medicine, 344, pp 30-37, 2001).
The blood serum and bronchoalveolar lavage fluid (BALF) prepared in Experimental Example 1 was recovered to determine the level of IgE and OVA-specific IgE in blood serum.
The blood serum and bronchoalveolar lavage fluid (BALF) was added to 96-well plates (ELISA plate) and coated with 0.1M NaHCO3 buffer solution (pH 8.3) containing 20 μg/mlof OVA (Sigma, Mo., USA) at 4° C. overnight. After inhibiting nonspecific reaction using by PBS containing 1% bovine serum albumin, the serum for testing was diluted to 1:400 and reacted together for 2 hours at room temperature. After washing, the serum was reacted with diluted (×300) anti-mouse IgE monoclonal antibody (MCA419, Serotec, Oxford, UK) for 2 hours and with diluted (×4000) HRP-conjugated goat anti-rat IgG polyclonal A (STAR110P, Serotec, UK) for 1 hours at room temperature. After washing, the solution was stained with 3,3′,5,5′-tetramethylbenzidine (52-00-02, KPL) substrate and the reaction was stopped by 2N H2SO4 to determine the absorbance using by spectroscopy (Versamax, Molecular Devices, US) at 450 nm.

Experiment [7] has the same test system. As to the kind of experiment: Goblet cell plasia, PAS staining of lung tissue. Particulars: ratio of goblet cell in bronchiolar epithelial cell; 30 mg/kg PO. The protocol: In order to confirm the anti-asthmatic effect of test samples prepared in Examples, following goblet cell plasia analysis on broncho-alveolar tissue was performed by the method disclosed in the literature (Lee K S. et al., FASEB J., 20, pp 455-465, 2006).
The delivered lung tissues of BALB/c mice which had not perform broncho-alveolar lavage was fixed for 24 h in 10% neutral-buffered formalin. After being embedded in paraffin, then made into 4-μm thickness sections, the tissue was stained with Periodic acid Schiff (PAS stain kit, T-K7308, IMEB, CA, USA) to determine the ratio of goblet cell in bronchiolar epithelial cell

For `CC(C)(O)c1ccccc1CC[C@@H](SCC1(CC(=O)O)CC1)c1cccc(/C=C/c2ccc3ccc(Cl)cc3n2)c1` [M30, Montelukast], in experiment [1], the total IgE in blood serum was found to be 1.82 ± 0.4 µg/mL. Further, in experiment [2], the No. of eosinolphil is listed as 52.03 ± 4.06 10^3 cells/mouse and the “No. of inflammatory cells” value is given as 106.67 ± 6.48 10^3 cells/mouse. Also, in experiment [3], the IL-1β level is 187.03 ± 47.17 pg/mL, the IL-4 level amounted to 32.60 ± 4.53 pg/mL, the IL-5 level stood at 69.74 ± 7.17 pg/mL and the IL-13 level came to 25.93 ± 4.13 pg/mL. Moreover, the Inflammation score in experiment [4] is 1.25 ± 0.13. The “Penh Value” in experiment [5] (methacholine 0 mg/Ml) came to 0.49 ± 0.04. Also, in experiment [5] (methacholine 12.5 mg/Ml), the “Penh Value” came out at 1.54 ± 0.20. For the same compound, the “Penh Value” in experiment [5] (methacholine 25 mg/Ml) is 1.98 ± 0.37. The “Penh Value” in experiment [5] (methacholine 50 mg/Ml) turned out to be 2.51 ± 0.36. Further, the “level of IgE in serum” value in experiment [6] was found to be 4.76 ± 0.73 µg/mL. Further, the “level of OVA-specific IgE” value in experiment [6] (blood serum) came to 0.09 ± 0.02 µg/mL. For the same compound, in experiment [7], the “PAS + cells/bronchiole” value stood at 39.21 ± 2.34%.
